Measured values taken from PubChem BioAssay AID2286 (Southern Research Specialized Biocontainment Screening …, 2010).
Activity calls are given as the source filed them.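 How the source made its calls: active means minimum cell viability of 80% or lower across the dose range, counted as toxic; inactive means minimum cell viability above 80%.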

Assay: viability loss in fusion assay cells – cell-based, MAGI and MAGI-HeLa co-culture, cytotoxicity control for HIV-1 fusion inhibitor project, dose response (AID 2286);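 further: cells exposed to compound for at least 64 h before ATP readout; 100% = median of DMSO vehicle wells with no ATP signal meaning 0%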
Conditions: MAGI-CCR5 cells viability, CellTiter-Glo ATP luminescence; for minimum viability: measured here: MAGI minimum viability across doses
[1] = MAGI-HeLa co-culture viability, at 50 µM, stronger effect = lower value
[2] = at 6.25 µM, stronger effect = lower value
[3] = at 12.5 µM, stronger effect = lower value
[4] = at 1.56 µM, stronger effect = lower value
[5] = at 3.13 µM, stronger effect = lower value

## O=C(O)c1[nH]c2ccccc2c1C(c1c(F)cccc1Cl)c1c(C(=O)O)[nH]c2ccccc12
[1]
  viability: 114%
At 50 µM (top of the series)
  viability: 104% (inactive)
At 0.1 µM, stronger effect = lower value
  minimum viability: 87.9%

## COc1cc(/C=C2\S/C(=N/S(=O)(=O)c3ccc(C)cc3)NC2=O)c([N+](=O)[O-])cc1OC
[1]
  viability: 98.5%
At 50 µM (top of the series)
  viability: 98.6% (inactive)
At 50 µM, stronger effect = lower value
  minimum viability: 98.6%

## N#Cc1c(SCC(=O)Nc2nc3ccc(Br)cc3s2)sc2c(O)cc(=O)[nH]c12
[1]
  viability: 81.1%
At 50 µM (top of the series)
  viability: 83.3% (inactive)
At 50 µM, stronger effect = lower value
  minimum viability: 83.3%

## Cc1ccc(-n2c(O)c(C=Nc3ccccc3-c3n[nH]c(=S)[nH]c3=O)c3ccccc3c2=O)c(C)c1
[1]
  viability: 85.8%
At 50 µM, stronger effect = lower value
  minimum viability: 53.6%

## O=C(Nc1cc(C(=O)Nc2ccccc2C(=O)O)cc(C(=O)Nc2ccccc2C(=O)O)c1)c1ccccc1
[1]
  viability: 122%
At 50 µM (top of the series)
  viability: 113% (inactive)
[2]
  minimum viability: 90.9%

## Cc1ccc(N2C(=O)/C(=C/c3ccc(CN(CCC#N)S(C)(=O)=O)o3)C(=O)NC2=S)cc1C
[1]
  viability: 98.6%
At 50 µM (top of the series)
  viability: 89.2% (inactive)
[3]
  minimum viability: 84.4%

## O=C(O)c1cccc2c(-c3ccccc3)c(-c3ccccc3)[nH]c12
[1]
  viability: 128%
At 50 µM (top of the series)
  viability: 93.1% (inactive)
At 50 µM, stronger effect = lower value
  minimum viability: 93.1%

## COc1ccc(OC)c(N2C(=O)/C(=C/c3ccco3)C(=O)NC2=S)c1
[1]
  viability: 90.2%
At 50 µM (top of the series)
  viability: 94.8% (inactive)
[2]
  minimum viability: 83.8%

## O=C(O)c1ccc(Cl)c(S(=O)(=O)Nc2ccccc2C(=O)Nc2ccc(Cl)cc2)c1
[1]
  viability: 92.9%
At 50 µM (top of the series)
  viability: 82.6% (inactive)
At 50 µM, stronger effect = lower value
  minimum viability: 82.6%

## O=C1NC(=S)N(c2ccc(F)cc2)C(=O)/C1=C/c1ccco1
[1]
  viability: 122%
At 50 µM (top of the series)
  viability: 131% (inactive)
[4]
  minimum viability: 105%

## O=C1NC(=O)/C(=C/c2ccc(-c3cc(C(=O)O)ccc3Cl)o2)S1
[1]
  viability: 105%
At 50 µM (top of the series)
  viability: 91% (inactive)
[2]
  minimum viability: 88.5%

## CCCCCCc1c(C)c2ccc(OCC(=O)N[C@@H](Cc3ccccc3)C(=O)O)cc2oc1=O
[1]
  viability: 101%
At 50 µM (top of the series)
  viability: 96.7% (inactive)
[5]
  minimum viability: 90.1%

## COc1ccc(C(=O)Oc2ccc(/C=N/Nc3ccc(Cl)c(C(=O)O)c3)cc2OC)cc1
[1]
  viability: 104%
At 50 µM (top of the series)
  viability: 80.5% (inactive)
At 50 µM, stronger effect = lower value
  minimum viability: 80.5%

## Cc1cc(/C=C2/C(=N)N3C(=NC2=O)SN=C3S(C)(=O)=O)c(C)n1-c1ccccc1
[1]
  viability: 116%
At 50 µM (top of the series)
  viability: 104% (inactive)
At 0.2 µM, stronger effect = lower value
  minimum viability: 101%

## O=C(O)C1Nc2c(cccc2C(F)(F)F)C2C=CCC12 (stereo unspecified)
[1]
  viability: 124%
At 50 µM (top of the series)
  viability: 106% (inactive)
[3]
  minimum viability: 86.1%

## Cc1ccc(-n2cccc2/C=C2/C(=N)N3C(=NC2=O)SN=C3S(C)(=O)=O)cc1Cl
[1]
  viability: 96.7%
At 50 µM, stronger effect = lower value
  minimum viability: 77.3%

## CCOc1cc(Br)cc(C(c2c(C(=O)O)[nH]c3ccccc23)c2c(C(=O)O)[nH]c3ccccc23)c1O
[1]
  viability: 100%
At 50 µM (top of the series)
  viability: 87% (inactive)
[2]
  minimum viability: 82.9%

## O=C(O)c1ccccc1NS(=O)(=O)c1ccc(NNC(=S)Nc2ccc(OC(F)F)cc2)c([N+](=O)[O-])c1
[1]
  viability: 86.2%
At 50 µM (top of the series)
  viability: 101% (inactive)
[5]
  minimum viability: 93%

## COc1ccc(O)c(C(=O)c2cc(SCC(=O)O)c3nc4sc5c(c4c(=O)n3c2)CCCC5)c1
[1]
  viability: 122%
At 50 µM (top of the series)
  viability: 96.7% (inactive)
[3]
  minimum viability: 90.5%

## COc1ccc(N=C2S/C(=C\c3ccc(OCC(=O)O)cc3)C(=O)N2CCc2c[nH]c3ccccc23)cc1
[1]
  viability: 173%
At 50 µM (top of the series)
  viability: 93.7% (inactive)
At 25 µM, stronger effect = lower value
  minimum viability: 90.8%

## CCc1nnc(NS(=O)(=O)c2ccc(NC(=S)NC(=O)/C=C/c3ccc(F)cc3)cc2)s1
[1]
  viability: 115%
At 50 µM (top of the series)
  viability: 89.6% (inactive)
[3]
  minimum viability: 83.8%

## CC1=C(C(=O)OC(C)C)C(c2ccc(Cl)cc2)n2c(s/c(=C\c3ccc(OCC(=O)O)cc3)c2=O)=N1 (stereo unspecified)
[1]
  viability: 103%
At 50 µM, stronger effect = lower value
  minimum viability: 73.5%

## CCc1nnc(NS(=O)(=O)c2ccc(NC(=S)NC(=O)/C=C/c3cccs3)cc2)s1
[1]
  viability: 105%
At 50 µM (top of the series)
  viability: 93.8% (inactive)
At 25 µM, stronger effect = lower value
  minimum viability: 83.5%

## CCOC(=O)C1=C(C)N=c2s/c(=C\c3ccc(OCC(=O)O)c(OC)c3)c(=O)n2C1c1ccc(OC)cc1 (stereo unspecified)
[1]
  viability: 107%
At 50 µM (top of the series)
  viability: 97.1% (inactive)
[4]
  minimum viability: 88%

## COc1cccc(-c2nc(SCC(=O)Nc3nc(-c4ccccc4)c(C)s3)[nH]c(=O)c2C#N)c1
[1]
  viability: 116%
At 50 µM (top of the series)
  viability: 87.6% (inactive)
At 50 µM, stronger effect = lower value
  minimum viability: 87.6%

## Cc1ccc(-c2nn(-c3ccccc3)cc2/C=C2\SC(=S)N(CC(=O)O)C2=O)cc1
[1]
  viability: 92.3%
At 50 µM (top of the series)
  viability: 81.7% (inactive)
At 25 µM, stronger effect = lower value
  minimum viability: 80.9%

## COc1cc(/C=N/Nc2ccc(Cl)c(C(=O)O)c2)ccc1OC(=O)c1ccc(F)cc1
[1]
  viability: 103%
At 50 µM (top of the series)
  viability: 89.8% (inactive)
At 50 µM, stronger effect = lower value
  minimum viability: 89.8%

## Cc1c(CC(=O)O)c(=O)oc2c(C)c3occ(-c4ccc(Br)cc4)c3cc12
[1]
  viability: 123%
At 50 µM, stronger effect = lower value
  minimum viability: 75.8%

## Cc1ccc(S(=O)(=O)Oc2ccc(/C=C3\C(=N)N4N=C(S(C)(=O)=O)SC4=NC3=O)cc2)cc1
[1]
  viability: 103%
At 50 µM (top of the series)
  viability: 98.5% (inactive)
At 25 µM, stronger effect = lower value
  minimum viability: 97.1%

## O=C(N/N=C/c1cc(Cl)cc([N+](=O)[O-])c1O)c1ccccc1NS(=O)(=O)c1cccs1
[1]
  viability: 107%
At 50 µM (top of the series)
  viability: 96.6% (inactive)
[3]
  minimum viability: 92.8%

## O=C(Nc1ccc(C(=O)O)cc1)/C(=C\C=C\c1ccccc1)NC(=O)c1cccc(Br)c1
[1]
  viability: 85.1%
At 50 µM (top of the series)
  viability: 89.9% (inactive)
[2]
  minimum viability: 83.2%

## CS(=O)(=O)C1=NSC2=NC(=O)/C(=C\c3ccc(OC(=O)c4ccco4)c(Br)c3)C(=N)N21
[1]
  viability: 106%
At 50 µM (top of the series)
  viability: 94.8% (inactive)
At 50 µM, stronger effect = lower value
  minimum viability: 94.8%

## COc1cc(/C=C(\C#N)c2nc3ccc(C)cc3[nH]2)cc([N+](=O)[O-])c1O
[1]
  viability: 90.4%
At 50 µM, stronger effect = lower value
  minimum viability: 74.1%

## COc1cc(NS(=O)(=O)c2ccc(Nc3nc(-c4ccccc4)cs3)cc2)nc(OC)n1
[1]
  viability: 82.3%
At 50 µM, stronger effect = lower value
  minimum viability: 67.3%

## CC1=C(C(=O)Nc2ccccc2)C(c2ccc(Cl)cc2)n2c(s/c(=C/c3cccc(OCC(=O)O)c3)c2=O)=N1 (stereo unspecified)
[1]
  viability: 127%
At 50 µM (top of the series)
  viability: 114% (inactive)
[5]
  minimum viability: 104%

## N=C1/C(=C\c2ccc(-c3cccc(C(=O)O)c3)o2)C(=O)N=C2SC=C(c3ccccc3)N12
[1]
  viability: 103%
At 50 µM (top of the series)
  viability: 81% (inactive)
[3]
  minimum viability: 80.3%

## O=C(O)c1ccc(-c2ccc(/C=C3\NC(=O)N(Cc4ccc(Cl)cc4)C3=O)o2)cc1Cl
[1]
  viability: 102%
At 50 µM (top of the series)
  viability: 107% (inactive)
[5]
  minimum viability: 98.2%

## CCS(=O)(=O)C1=NSC2=NC(=O)/C(=C\c3ccc(OS(=O)(=O)c4ccccc4)c(OC)c3)C(=N)N21
[1]
  viability: 101%
At 50 µM (top of the series)
  viability: 80.5% (inactive)
At 50 µM, stronger effect = lower value
  minimum viability: 80.5%

## COc1cc(/C=C2\SC(=O)N(c3ccccc3Cl)C2=O)cc([N+](=O)[O-])c1O
[1]
  viability: 85.2%
At 50 µM, stronger effect = lower value
  minimum viability: 50%

## O=C(O)c1ccc(-c2ccc(/C=c3/sc4nc5ccccc5n4c3=O)o2)cc1Cl
[1]
  viability: 116%
At 50 µM (top of the series)
  viability: 92.3% (inactive)
At 25 µM, stronger effect = lower value
  minimum viability: 87.5%

## O=C(O)CSCC(=O)N(Cc1ccccc1)c1nc(-c2ccccc2)c(-c2ccccc2)s1
[1]
  viability: 121%
At 50 µM (top of the series)
  viability: 89% (inactive)
At 50 µM, stronger effect = lower value
  minimum viability: 89%

## O=C1N=c2ccc(Br)cc2=C1c1sc(=S)n(NS(=O)(=O)c2ccccc2)c1O
[1]
  viability: 89.2%
At 50 µM (top of the series)
  viability: 102% (inactive)
[5]
  minimum viability: 98.5%

## Cc1cc(C)c2nc(N3C(=O)C(O)=C(C(=O)c4ccco4)C3c3ccco3)sc2c1 (stereo unspecified)
[1]
  viability: 119%
At 50 µM (top of the series)
  viability: 91.8% (inactive)
At 50 µM, stronger effect = lower value
  minimum viability: 91.8%

## Cc1ccc(NS(=O)(=O)c2ccc(N/N=C/c3ccccc3OCC(=O)O)c([N+](=O)[O-])c2)c(C)c1
[1]
  viability: 101%
At 50 µM (top of the series)
  viability: 108% (inactive)
At 0.39 µM, stronger effect = lower value
  minimum viability: 88.5%

## COc1ccc(NC(=O)c2c[nH]n3c(=O)cc(C4CCN(C(=O)OC(C)(C)C)CC4)nc23)cc1Cl
[1]
  viability: 94.3%
At 50 µM (top of the series)
  viability: 88.3% (inactive)
At 50 µM, stronger effect = lower value
  minimum viability: 88.3%

## O=C(O)CSc1ncnc2c1sc1nc(-c3ccccc3)c3c(c12)CCC3
[1]
  viability: 111%
At 50 µM (top of the series)
  viability: 98.6% (inactive)
[3]
  minimum viability: 92.4%

## CC1(C)CC(=O)C2=C(C1)c1c(ccc3ccccc13)NC2c1cc([N+](=O)[O-])cc([N+](=O)[O-])c1O (stereo unspecified)
[1]
  viability: 107%
At 50 µM, stronger effect = lower value
  minimum viability: 56%

## CCc1ccc(/C=C2\SC(=S)N(CCCC(=O)Nc3ccccc3C(=O)O)C2=O)cc1
[1]
  viability: 90.6%
At 50 µM, stronger effect = lower value
  minimum viability: 70.3%

## CC(C)(C)CC(C)(C)c1ccc(OCC(=O)N/N=C/c2ccc(S(=O)(=O)O)o2)cc1
[1]
  viability: 104%
At 50 µM (top of the series)
  viability: 87.8% (inactive)
[3]
  minimum viability: 81.1%

## N#Cc1c(-c2cccs2)nc(SCc2ccc(Cl)cc2)[nH]c1=O
[1]
  viability: 118%
At 50 µM, stronger effect = lower value
  minimum viability: 73%

## COc1cc(C(c2c(C(=O)O)[nH]c3ccccc23)c2c(C(=O)O)[nH]c3ccccc23)ccc1OCc1ccccc1
[1]
  viability: 90.3%
At 50 µM (top of the series)
  viability: 85.8% (inactive)
[3]
  minimum viability: 82.7%

## Oc1c(Br)cc(Br)c(/C=N/n2c(-c3ccccc3)n[nH]c2=S)c1Br
[1]
  viability: 99.3%
At 50 µM (top of the series)
  viability: 90.8% (inactive)
At 50 µM, stronger effect = lower value
  minimum viability: 90.8%
